Values quoted from earlier work as cited in patent publication US20110250274A1, “ESTRIOL FORMULATIONS” (priority 2008, published 2011).

Assays:
[1] = oral administration
[2] = intravaginal route, avoiding enterohepatic circulation
[3] = compared with the other main human estrogens

share of the administered oral dose rapidly glucuro-conjugated by the liver [1]: ~90% | share of the oral dose administered that reaches the systemic circulation [1]: 1-2% | plasma levels of free estriol [2]: 20%
SMILES: C[C@]12CC[C@@H]3c4ccc(O)cc4CC[C@H]3[C@@H]1C[C@@H](O)[C@@H]2O [Estriol, estra-1,3,5(10)-triene-3,16a,17β-triol]
mitogenic activity [3]: no mitogenic activity
